Values after ≈ are worked out from the molar mass of the structure shown. Like-named read-outs stand apart in the source and are kept apart here.
Legend:
[1] = system: full length SMN2 minigene mRNA; assay: SMN2 minigene mRNA splicing RT-qPCR assay in cultured cells; assay type: cell-based, human; settings: Homo sapiens, HEK293-H; HEK293H cells stably transfected with SMN2-A minigene, 24 hours, 7-point concentration curve; read-out: EC1.5x minigene
Source text: The term “EC1.5x concentration for production of full length SMN2 minigene mRNA” (or “EC1.5x minigene”) is defined as that concentration of test compound that is effective in increasing the amount of full length SMN2 minigene mRNA to a level 1.5-fold greater relative to that in vehicle-treated cells.
The reverse transcription-quantitative PCR-based (RT-qPCR) assay is used to quantify the level of the full length SMN2 minigene (referred to herein by the term “FL SMN2mini”) mRNA containing SMN2 exon 7 in a HEK293H cell line stably transfected with said minigene and treated with a test compound. Materials used and respective sources are listed below in Table 1.
The SMN2-A minigene construct was prepared as described in International Patent Application WO2009/151546A1 page 145 paragraph [00400] to page 147 paragraph [00412](incl. FIG. 1 and FIG. 3 therein).
HEK293H cells stably transfected with the SMN2-A minigene construct (10,000 cells/well) are seeded in 200 μL of cell culture medium (DMEM plus 10% FBS, with 200 μg/mL hygromycin) in 96-well flat-bottom plates and the plate is immediately swirled to ensure proper dispersal of cells and the formation of an even monolayer of cells. Cells are allowed to attach for 6 hours. Test compounds are serially diluted 3.16-fold in 100% DMSO to generate a 7-point concentration curve. A solution of test compound (1 μL, 200× in DMSO) is added to each cell-containing well and the plate is incubated for 24 hours in a cell culture incubator (37° C., 5% CO2, 100% relative humidity). 2 replicates are prepared for each test compound concentration. The cells are then lysed in the Cells-To-Ct lysis buffer and the lysate is stored at −80° C.
Full length SMN2-A minigene and GAPDH mRNA are quantified using the primers and probes referenced in WO2014/209841A2 on page 80 in Table 1. Primer SMN Forward A (SEQ ID NO.1) hybridizes to a nucleotide sequence in exon 7 (nucleotide 22 to nucleotide 40), primer SMN Reverse A (SEQ ID NO.2) hybridizes to a nucleotide sequence in the coding sequence of Firefly luciferase, SMN Probe A (SEQ ID NO.3) hybridizes to a nucleotide sequence in exon 7 (nucleotide 50 to nucleotide 54) and exon 8 (nucleotide 1 to nucleotide 21). The combination of these three oligonucleotides detects only SMN1 or SMN2 minigenes (RT-qPCR) and will not detect endogenous SMN1 or SMN2 genes.
The SMN forward and reverse primers are used at final concentrations of 0.4 μM. The SMN probe is used at a final concentration of 0.15 μM. The GAPDH primers are used at final concentrations of 0.2 μM and the probe at 0.15 μM.
The SMN2-minigene GAPDH mix (15 μL total volume) is prepared by combining 7.5 μL of 2×RT-PCR buffer, 0.4 μL of 25×RT-PCR enzyme mix, 0.75 μL of 20×GAPDH primer-probe mix, 4.0075 μL of water, 2 μL of 10-fold diluted cell lysate, 0.06 μL of 100 μM SMN forward primer, 0.06 μL of 100 μM SMN reverse primer, and 0.225 μL of 100 μM SMN probe.
PCR is carried out at the following temperatures for the indicated time: Step 1: 48° C. (15 min); Step 2: 95° C. (10 min); Step 3: 95° C. (15 sec); Step 4: 60° C. (1 min); then repeat Steps 3 and 4 for a total of 40 cycles.
Each reaction mixture contains both SMN2-A minigene and GAPDH primers/probe sets (multiplex design), allowing simultaneous measurement of the levels of two transcripts.
The increase in the abundance of the FL SMN2mini mRNA relative to that in cells treated with vehicle control is determined from real-time PCR data using a modified ΔΔCt method (as described in Livak and Schmittgen, Methods, 2001, 25:402-8). The amplification efficiency E is calculated from the slope of the amplification curve for FL SMN2mini and GAPDH individually. The abundance of FL SMN2mini and GAPDH mRNA are then calculated as (1+E)^−Ct, where Ct is the threshold value for each amplicon. The abundance of FL SMN2mini mRNA is normalized to GAPDH mRNA abundance. […]

[2] = system: splicing events and expression levels of genes; settings: Palacino et al, Nat Chem Biol. 2015, cited from earlier work
[3] = Stability of olesoxime (solid state, oral suspension in sesame oil); assay type: physicochemical; settings: 25° C./60% RH
Protocol: Examples of compositions comprising olexosime are described in US2010099652A1. […] Olesoxime has low aqueous solubility (less than 5 μg/ml) across the physiological pH range. It is freely soluble or soluble in a range of non-aqueous solvents.
7.5 g crystalline olesoxime powder (particle size distribution with d90 value 70-90 μm) was suspended in 75 ml (61.6 g) sesame oil (refined) as vehicle through agitation (e.g. shaking) to yield a homogeneous suspension (final olesoxime concentration 100 mg/ml).

adult mice = settings: cited from earlier work
neonatal rats = settings: cited from earlier work
Solubility = assay type: physicochemical
[4] = system: patients with Types 2 and 3 SMA; settings: two-year treatment period, compared with approximately two-point decline in the placebo arm; cited from earlier work

`Cc1cn2nc(-c3cc(=O)n4cc(N5CCN6CCC[C@@]6(C)C5)ccc4n3)cc(C)c2n1` [Example 5, 7-[(8aS)-8a-methyl-1,3,4,6,7,8-hexahydropyrrolo[1,2-a]pyrazin-2-yl]-2-(2,8-dimethylimidazo[1,2-b]pyridazin-6-yl)pyrido[1,2-a]pyrimidin-4-one] showed an EC (1.5-fold increase) [1] of 0.0006 µM.
Compound `Cc1cn2nc(-c3cc(=O)n4cc(N5CCN[C@H](C)C5)ccc4n3)cc(C)c2n1` [Example 9, 2-(2,8-dimethylimidazo[1,2-b]pyridazin-6-yl)-7-[(3R)-3-methylpiperazin-1-yl]pyrido[1,2-a]pyrimidin-4-one] has an EC (1.5-fold increase) [1] of 0.0001 µM.
In the case of `Cc1cn2nc(-c3cc(=O)n4cc(N5CCN[C@H](C)C5)cc(C)c4n3)cc(C)c2n1` [Example 25, 2-(2,8-dimethylimidazo[1,2-b]pyridazin-6-yl)-9-methyl-7-[(3R)-3-methylpiperazin-1-yl]pyrido[1,2-a]pyrimidin-4-one], the EC (1.5-fold increase) [1] is reported as 0.0005 µM.
With `Cc1cn2nc(-c3cc(=O)n4cc(N5CCNC6(CC6)C5)cc(C)c4n3)cc(C)c2n1` [Example 28, 7-(4,7-diazaspiro[2.5]octan-7-yl)-2-(2,8-dimethylimidazo[1,2-b]pyridazin-6-yl)-9-methyl-pyrido[1,2-a]pyrimidin-4-one] the EC (1.5-fold increase) [1] was 0.005 µM.
For `Cc1cn2nc(-c3cc(=O)n4cc(N5CCN[C@@H](C)C5)ccc4n3)cc(C)c2n1` [Example 8, 2-(2,8-dimethylimidazo[1,2-b]pyridazin-6-yl)-7-[(3S)-3-methylpiperazin-1-yl]pyrido[1,2-a]pyrimidin-4-one], the EC (1.5-fold increase) [1] was 0.0003 µM.
For `Cc1cn2nc(-c3cc(=O)n4cc(N5CCNC(C)(C)C5)ccc4n3)cc(C)c2n1` [Example 22, 2-(2,8-dimethylimidazo[1,2-b]pyridazin-6-yl)-7-(3,3-dimethylpiperazin-1-yl)pyrido[1,2-a]pyrimidin-4-one], the EC (1.5-fold increase) [1] was 0.0009 µM.
In the case of `Cc1cn2nc(-c3cc(=O)n4cc(N5CCN[C@@H](C)C5)cc(C)c4n3)ccc2n1` [Example 33, 9-methyl-2-(2-methylimidazo[1,2-b]pyridazin-6-yl)-7-[(3S)-3-methylpiperazin-1-yl]pyrido[1,2-a]pyrimidin-4-one], the EC (1.5-fold increase) [1] is reported as 0.0005 µM.
`Cc1cn2nc(-c3cc(=O)n4cc(N5CC[C@H](N6CCCC6)C5)ccc4n3)cc(C)c2n1` [Example 30, 2-(2,8-dimethylimidazo[1,2-b]pyridazin-6-yl)-7-[(3S)-3-pyrrolidin-1-ylpyrrolidin-1-yl]pyrido[1,2-a]pyrimidin-4-one] showed an EC (1.5-fold increase) [1] of 0.003 µM.
Work on `Cc1cn2nc(-c3cc(=O)n4cc(N5CCN6CCC[C@H]6C5)ccc4n3)ccc2n1` [Example 15, 7-[(8aS)-3,4,6,7,8,8a-hexahydro-1H-pyrrolo[1,2-a]pyrazin-2-yl]-2-(2-methylimidazo[1,2-b]pyridazin-6-yl)pyrido[1,2-a]pyrimidin-4-one] yielded an EC (1.5-fold increase) [1] of 0.004 µM.
Compound `Cc1cn2nc(-c3cc(=O)n4cc(N5CCCNCC5)ccc4n3)ccc2n1` [Example 13, 7-(1,4-diazepan-1-yl)-2-(2-methylimidazo[1,2-b]pyridazin-6-yl)pyrido[1,2-a]pyrimidin-4-one] has an EC (1.5-fold increase) [1] of 0.005 µM.
For `Cc1cn2nc(-c3cc(=O)n4cc(N5CCN[C@H](C)C5)cc(C)c4n3)ccc2n1` [Example 34, 9-methyl-2-(2-methylimidazo[1,2-b]pyridazin-6-yl)-7-[(3R)-3-methylpiperazin-1-yl]pyrido[1,2-a]pyrimidin-4-one], the EC (1.5-fold increase) [1] was 0.0009 µM.
`Cc1cn2nc(-c3cc(=O)n4cc(N5CCNC(C)(C)C5)cc(C)c4n3)ccc2n1` [Example 36, 7-(3,3-dimethylpiperazin-1-yl)-9-methyl-2-(2-methylimidazo[1,2-b]pyridazin-6-yl)pyrido[1,2-a]pyrimidin-4-one] showed an EC (1.5-fold increase) [1] of 0.005 µM.
In the case of `CC[C@@H]1CN(c2ccc3nc(-c4ccc5nc(C)cn5n4)cc(=O)n3c2)CCN1` [Example 39, 7-[(3R)-3-ethylpiperazin-1-yl]-2-(2-methylimidazo[1,2-b]pyridazin-6-yl)pyrido[1,2-a]pyrimidin-4-one], the EC (1.5-fold increase) [1] is reported as 0.0009 µM.
With `Cc1cn2nc(-c3cc(=O)n4cc(N5CCN[C@@H](C)C5)cc(C)c4n3)cc(C)c2n1` [Example 24, 2-(2,8-dimethylimidazo[1,2-b]pyridazin-6-yl)-9-methyl-7-[(3S)-3-methylpiperazin-1-yl]pyrido[1,2-a]pyrimidin-4-one] the EC (1.5-fold increase) [1] was 0.0004 µM.
Work on `Cc1cn2nc(-c3cc(=O)n4cc(N5C[C@H](C)N[C@@H](C)C5)ccc4n3)cc(C)c2n1` [Example 29, 2-(2,8-dimethylimidazo[1,2-b]pyridazin-6-yl)-7-[(3S,5S)-3,5-dimethylpiperazin-1-yl]pyrido[1,2-a]pyrimidin-4-one] yielded an EC (1.5-fold increase) [1] of 0.0003 µM.
In the case of `Cc1cn2nc(-c3cc(=O)n4cc(N5C[C@H](C)N[C@@H](C)C5)cc(C)c4n3)ccc2n1` [Example 38, 7-[(3S,5S)-3,5-dimethylpiperazin-1-yl]-9-methyl-2-(2-methylimidazo[1,2-b]pyridazin-6-yl)pyrido[1,2-a]pyrimidin-4-one], the EC (1.5-fold increase) [1] is reported as 0.0003 µM.
In the case of `CC1(C)CC(Oc2ccc(-c3ccc(-c4cn[nH]c4)cc3O)nn2)CC(C)(C)N1` [NVS-SM1], the “candidate events where splicing changed in response to treatment” value [2] is listed as 39 and the “number of genes changed at greater than ±2-fold (p<0.05)” value ([2]; expression level) is listed as 175.
In the case of `CC(C)CCC[C@@H](C)[C@H]1CC[C@H]2[C@@H]3CCC4=C/C(=N/O)CC[C@]4(C)[C@H]3CC[C@]12C` (stereo in doubt) [Olesoxime, Cholest-4-en-3-one oxime], the “stable in the solid state” value [3] is listed as over 36 months, the “effect on nerve regeneration after nerve crush” value (adult mice) is listed as “promotes nerve regeneration” and the “effect on motor neurons after nerve lesion” value (neonatal rats) is listed as “rescues motor neurons from cell death”. The solubility (Solubility; aqueous medium, aqueous buffer, across the physiological pH range, read-out: aqueous solubility) was under 0.005 mg/mL, the solubility (Solubility; sesame oil, oil or lipid, read-out: solubility in sesame oil) was about 35 mg/mL (≈ 87.6 mM) and the “motor function (motor function measure, MFM)” value [4] was “maintenance of motor function”.
